Test results from publication PMC6689975, “Novel Cell Wall Antifungals Reveal a Special Synergistic Activity in pbr1 Mutants Resistant to the Glucan Synthesis Antifungals Papulacandins and Echinocandins” (Frontiers in Microbiology, 2019).
≈ marks a conversion by molar mass, not a printed value. Like-named read-outs stand apart in the source and are kept apart here.

Assays:
Assay in all cases: microbe, parasite or virus in culture
[1] = tested on: T1, S. cerevisiae wild-type CVX12-3A; design: species or system whole yeast cells; micro-culture broth dilution MIC in YES at 30 C, turbidity, complete growth inhibition; details: Saccharomyces cerevisiae
T1 construct: CVX12-3A
Procedure: (§1) Standard YEPD (Yeast Extract, Peptone, Dextrose) ([Sherman, 1990]), YEPD+S (YEPD with 1.2M sorbitol), YES (Yeast Extract, Dextrose and Supplements of Adenine, Histidine, Leucine, Uracil and Lysine) ([Alfa et al., 1993]) and YES+S (YES with 1.2 M sorbitol) ([Ribas et al., 1991]; [Ishiguro et al., 1997]), media were used for determination of MIC values of the tested compounds. A stock solution of 10 mg/ml of each tested compounds was prepared in DMSO and serial dilutions in DMSO were prepared. The final concentration of DMSO was 2% in the YEPD medium. […] The serial dilutions of compounds were dispensed into test tubes with 1 ml of YEPD or YEPD+S to make final concentrations of 200, 100, 50, 25, 12.5, 6.26, 3.125, 1.6, 0.8 and 0.4 μg/ml. The tested yeast strains were previously grown in YEPD, YEPD+S, YES or YES+S agar plates at 30°C for 48 h. Micro-culture assays of large numbers of samples were analyzed as described) ([Martins et al., 2011]). Essentially early log-phase cells were grown in YEPD, YEPD+S, YES or YES+S (1.2 M sorbitol) medium at 30°C, and diluted to cell density of 4 X 10^6 cells/ml in YEPD, YEPD+S, YES or YES+S medium and aliquots of 100 μl were dispensed into each small test tube (3 ml test tube size). Then, another 100 μl of YEPD, YEPD+S, YES or YES+S with the corresponding dilution of each compound at 2X concentration (4% DMSO) was added. The final volume was 200 μl, with the cells diluted to of 2 X 10^6 cells/ml and each compound diluted to 1X final concentration, containing increasing concentrations of antifungal (0, 1, 2, 5, 10, 20, 50, 100 and 200 μg/ml) or an equivalent volume of solvent (2% DMSO). The cells were grown at 30°C in an orbital roller and turbidity was analyzed after 24 and 48 h of incubation. The MIC was determined as the minimal concentration of tested compound that produced complete cell growth inhibition and kept the medium clear. The MIC values were calculated from at least three independent experiments. Next, the first generation of isochromanones (1E-16E) was also screened in YES medium (Table 5) and exerted a weaker antifungal potency than in YEPD medium and also than the second family of isochromanones in YES medium (17E-30E) (Table 6). The strains are partly different from the previously mentioned ones (Tables 5, 6) analyzing two wild type C. albicans strains because they behaved similarly in YEPD. It is remarkable that there was no effect against either the C. albicans, the S. cerevisiae, or the S. pombe wild-type strains, except with 30E.

[2] = tested on: T2, S. pombe wild-type 972 h-; design: species or system whole yeast cells; micro-culture broth dilution MIC in YES at 30 C, turbidity, complete growth inhibition; details: Schizosaccharomyces pombe
T2 construct: 972 h-
Procedure: as §1

[3] = tested on: T1, S. cerevisiae wild-type CVX12-3A; design: species or system whole yeast cells; macro tube broth dilution MIC in YEPD at 30 C, visual clearness of medium; details: Saccharomyces cerevisiae, 48 h
Procedure: (§2) Standard YEPD (Yeast Extract, Peptone, Dextrose) ([Sherman, 1990]), YEPD+S (YEPD with 1.2M sorbitol), YES (Yeast Extract, Dextrose and Supplements of Adenine, Histidine, Leucine, Uracil and Lysine) ([Alfa et al., 1993]) and YES+S (YES with 1.2 M sorbitol) ([Ribas et al., 1991]; [Ishiguro et al., 1997]), media were used for determination of MIC values of the tested compounds. A stock solution of 10 mg/ml of each tested compounds was prepared in DMSO and serial dilutions in DMSO were prepared. The final concentration of DMSO was 2% in the YEPD medium. […] The serial dilutions of compounds were dispensed into test tubes with 1 ml of YEPD or YEPD+S to make final concentrations of 200, 100, 50, 25, 12.5, 6.26, 3.125, 1.6, 0.8 and 0.4 μg/ml. The tested yeast strains were previously grown in YEPD, YEPD+S, YES or YES+S agar plates at 30°C for 48 h. For inoculation of YEPD or YEPD+S macro test tubes a suspension of tested fungus was produced with 10^5 cfu/ml (cfu - colony forming unit). 10 μl of suspension was used for inoculation of each tube. After 48 h incubation at 30°C the tubes were checked. The MIC value is the lowest concentration of the tested compound that could inhibit the fungal growth and the medium remained clear. From each tube 10 μl culture was plated on YEPD agar medium to check the contamination. The MIC tests were carried out in three parallels. The screening of the first generation of isochromanones was carried out in YEPD and YEPD+S media (1E-16E). The fungal strains analyzed are: C. albicans wild-type ATCC 26555, SC5314 and ATCC 90028, S. cerevisiae wild-type CVX12-3A and pbr1-1 mutant, and S. pombe wild-type (972h^–), pbr1-8 mutant and pbr1-6 mutant. The bold numbers in Tables 4–6 indicate the more efficient compounds. […] The weak or moderate efficacy against the C. albicans wild-type strains was observed by some substances (3E, 4Z, 5Z, 10E, 15, and 16E). The efficiency toward the S. pombe pbr1-6 mutant strain was the highest inhibitory activity, except 7E, 11E, 12 and 14E. […] As regards the other S. pombe pbr1-8 mutant strain, the antifungal activity of the tested compounds was slightly lower, but the substances with the best activity are partly identical to the best compounds mentioned with pbr1-6, (i.e., 1E, 3E, 4Z, 5Z).

[4] = tested on: T2, S. pombe wild-type 972 h-; design: species or system whole yeast cells; macro tube broth dilution MIC in YEPD at 30 C, visual clearness of medium; details: Schizosaccharomyces pombe, 48 h
Procedure: as §2

Structure (SMILES)	MIC ([1]; YES medium) [µg/mL]	MIC ([2]; YES medium) [µg/mL]	MIC ([3]; YEPD medium) [µg/mL]	MIC ([4]; YEPD medium) [µg/mL]	MIC ([1]; read-out: MIC) [µg/mL]	MIC ([2]; read-out: MIC) [µg/mL]	MIC ([3]; read-out: MIC) [µg/mL]	MIC ([4]; read-out: MIC) [µg/mL]
O=c1oc2ccccc2cc1-c1ccccc1CO [compound 15]	> 200	> 200	50 (≈ 198 µM)	100 (≈ 396 µM)	–	–	–	–
O=c1oc2ccc3ccccc3c2cc1-c1ccccc1CO [compound 12]	> 200	> 200	100 (≈ 331 µM)	200 (≈ 662 µM)	–	–	–	–
CC[C@H](C)C[C@H](C)CCCCCCCCC(=O)N[C@H]1C[C@@H](O)[C@@H](NCCN)NC(=O)[C@@H]2[C@@H](O)CCN2C(=O)[C@H]([C@H](O)CCN)NC(=O)[C@H]([C@H](O)[C@@H](O)c2ccc(O)cc2)NC(=O)[C@@H]2C[C@@H](O)CN2C(=O)[C@H]([C@@H](C)O)NC1=O [caspofungin]	–	–	–	–	0.5 (≈ 0.457 µM)	10 (≈ 9.15 µM)	1 (≈ 0.915 µM)	5 (≈ 4.57 µM)
